Assay results taken from ChEMBL document CHEMBL1131516, “Sialyl Lewis X-polysaccharide conjugates: targeting inflammatory lesions” (Bioorg Med Chem Lett, 1998).

Target: T1, E-selectin (Rattus norvegicus, UniProt P98105)
T1 sequence (P98105 whole entry): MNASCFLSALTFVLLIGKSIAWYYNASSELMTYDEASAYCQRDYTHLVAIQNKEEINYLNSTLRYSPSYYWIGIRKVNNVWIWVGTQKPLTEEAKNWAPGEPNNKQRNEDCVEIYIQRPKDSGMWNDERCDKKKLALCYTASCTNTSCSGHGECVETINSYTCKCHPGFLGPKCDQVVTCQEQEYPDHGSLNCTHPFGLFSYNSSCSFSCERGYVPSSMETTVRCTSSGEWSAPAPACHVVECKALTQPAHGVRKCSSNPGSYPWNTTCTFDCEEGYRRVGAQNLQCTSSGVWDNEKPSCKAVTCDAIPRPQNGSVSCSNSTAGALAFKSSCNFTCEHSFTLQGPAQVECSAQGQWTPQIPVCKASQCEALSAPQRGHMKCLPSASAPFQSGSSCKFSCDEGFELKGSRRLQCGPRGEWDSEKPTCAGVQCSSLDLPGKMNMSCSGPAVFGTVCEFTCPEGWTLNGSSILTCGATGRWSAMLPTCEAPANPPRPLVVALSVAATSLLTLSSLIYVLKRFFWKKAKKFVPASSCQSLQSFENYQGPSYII
Assay: Inhibitory concentration against Selectin E expressed at the inflammatory lesion was measured by inhibition of leukocyte rolling in the inflammatory model using IL-lbeta activated rat mesentery venules. (In vivo )
Format: organism-based

- IC50: 2.63 µM
SMILES: CCOCCOCCOCCOCCOCCO[C@@H]1O[C@@H](CO)[C@@H](O[C@@H]2O[C@@H](CO)[C@H](O)[C@H](O[C@]3(C(=O)O)C[C@@H](O)[C@@H](NC(C)=O)[C@H]([C@H](O)[C@H](O)CO)O3)[C@@H]2O)[C@H](O[C@@H]2O[C@@H](C)[C@@H](O)[C@H](O)[C@@H]2O)[C@@H]1NC(C)=O
